Data as given in US20230172901A1, “COMPOSITIONS AND METHODS FOR THE PROPHYLAXIS AND TREATMENT OF FIBROTIC AND INFLAMMATORY CONDITIONS” (GRETALS AUSTRALIA PTY LTD, priority 2020, published 2023).
Entries after “also recorded” stand apart in the source; their conditions may differ.

What was measured:
Type in all cases: in vivo
[1] = system: sheep model for pulmonary fibrosis, bleomycin-injured lung segments; experiment: Example 2: segmental lung compliance (Cseg) in bleomycin-injured sheep lung segments
Experimental: Segmental compliance (Cseg) was assessed using pressure responses to flow in the different segments as indicated FIG. 2 in awake, consciously breathing sheep using a wedged-bronchoscope technique. Briefly, a custom-built Segmental Lung Airway Monitoring (SLAM) System was used to monitor the segmental flow and pressure. After first determining the bronchoscope resistance to the set flow, the bronchoscope was wedged into an airway in the lung segment of interest and a constant flow (6 mL/s) of 5% C02 in air was passed through the working channel of the bronchoscope.
Segmental lung compliance was calculated. Briefly, after the bronchoscope was wedged into the specific region of the lung, pressure was allowed to reach a steady state. After approximately 5 s at steady state, airflow was interrupted turning off the airflow supply. Segmental compliance was then calculated from the pressure-flow decay curve generated from this procedure. The process was repeated 3 times for each segment and expressed as an average value for Cseg. The pressure was recorded by a PM-1000 Transducer Amplifiers (CWE Inc., Admore, USA) and flow was recorded using a mass flow meter (824-S, Sierra Instruments, Monterey, USA). Data were acquired with Data Acquisition Card (PCI-6233; National Instruments Corp., Austin, USA) and was analysed with the SLAM system (Latitude E6520, Dell Computer Corporation, Texas USA and LabVIEW, National Instruments Corp., Austin, USA). All resistance measurements were corrected for the resistance of flow through the working channel of the bronchoscope.
(§1) In this study, a total of 10 sheep were used. Fibrosis in two lung segments of each sheep in a similar manner as performed in Example 1 herein. Using this procedure (as detailed further below) the fibrosis was confined to small, isolated regions in the lungs leaving the remaining 90-95% of the healthy unaffected lungs to undertake normal respiratory function.
All sheep (n=10) in the study were challenged with 2 single doses of bleomycin (3 units) per lung segment, a fortnight apart and the animals were kept for a little over 5 weeks after the final bleomycin dose. Bleomycin is a well-known agent for inducing fibrosis in the lungs. The administration procedure involves inserting a bronchoscope into lung segments in the right and left lung, and then slowly infusing the bleomycin into two segments as shown in FIG. 2 via the bronchoscope biopsy port. […]
Lung function was assessed in all test lung-segments (left and right caudal lobes, and medial lobe in each sheep). The functional capacity of the lung segments was measured through the endoscope using the procedure outlined in Example 1 herein. The lung function parameter assessed in this study is referred to as compliance in the lung segment (abbreviated to Cseg). […]

[2] = system: sheep model for pulmonary fibrosis, bleomycin-injured lung segments; experiment: Example 2: CD4+ and CD8+ T cells in lung parenchyma (immunohistochemistry)
Excerpt: as §1
(§2) All sheep (n=10) in the study were challenged with 2 single doses of bleomycin (3 units) per lung segment, a fortnight apart and the animals were kept for a little over 5 weeks after the final bleomycin dose. Bleomycin is a well-known agent for inducing fibrosis in the lungs. The administration procedure involves inserting a bronchoscope into lung segments in the right and left lung, and then slowly infusing the bleomycin into two segments as shown in FIG. 2 via the bronchoscope biopsy port.
(§3) In the study detailed in Example 1 herein, the dose-rate of pinocembrin was 7 mg pinocembrin per sheep, per week.
For control purposes the lung segment in the opposite lung was used as a bleomycin-positive, without drug, control, as indicated in FIG. 1. The bioactive molecules in vehicle, were delivered as 5 ml infusions through the biopsy port of the bronchoscope. Note that to nullify any small differences (e.g. physiological or anatomical etc.) between the left and right lungs, the infusions of pinocembrin were randomized between the left and right caudal lung segments. Half the animals (5 sheep) received pinocembrin to the right caudal lung segments, while the other 5 sheep received pinocembrin to the left caudal lung segments. The right medial lung segment was left untreated and used for healthy lung control tissue which was sampled at autopsy (FIG. 2). […]
Immunohistochemistry was performed on these frozen tissue sections using the indirect immunoperoxidase technique. […] For cell counts, either 200 immunoperoxidase positive cells were counted in a maximum of 20 microscope fields (×400 magnification) using an area-calibrated grid, or a minimum of 20 microscope fields were counted for less frequent counts.

[3] = system: sheep model for pulmonary fibrosis, bleomycin-injured lung segments; experiment: Example 2: histopathology scoring (H&E; inflammation, fibrosis, overall pathology)
Experimental: Histopathology of lung parenchyma was assessed by an experienced pathologist blinded to the treatment groups using a semi-quantitative scoring system. Briefly, the criteria used gives score indices separately for both inflammation and fibrosis pathology, and these score indices added together give an ‘overall pathology score’.
as §1, §2, §3
For control purposes the lung segment in the opposite lung was used as a bleomycin-positive, without drug, control, as indicated in FIG. 1. The bioactive molecules in vehicle, were delivered as 5 ml infusions through the biopsy port of the bronchoscope. Note that to nullify any small differences (e.g. physiological or anatomical etc.) between the left and right lungs, the infusions of pinocembrin were randomized between the left and right caudal lung segments. Half the animals (5 sheep) received pinocembrin to the right caudal lung segments, while the other 5 sheep received pinocembrin to the left caudal lung segments. The right medial lung segment was left untreated and used for healthy lung control tissue which was sampled at autopsy (FIG. 2).
Following euthanasia, the lungs were removed, and targeted lung-segments identified and carefully dissected free from surrounding tissue. Individual segments were then inflated with a 1:1 mixture of Optimal Cutting Temperature Compound (OCT, ProSciTech Ltd Pty) and sterile PBS solution, under pressure of approximately 20 cm/H2O. Several serial transverse sections of the inflated segment were fixed in 10% neutral-buffered formalin and processed in paraffin for histopathological assessment. Remaining lung slices were embedded in OCT and frozen in cryo-moulds on aluminium boats floating on liquid nitrogen for immunochemistry analyses.
Paraffin-embedded tissue sections (5 μm) were stained with haematoxylin and eosin Y (H&E) for general histology and with Masson's trichrome staining to identify changes to collagen content within the lung parenchyma.
Histopathology of the lung parenchyma was assessed using a semi-quantitative scoring system as outline in Example 1 herein. […] For each H&E stained section, 10 consecutive, non-overlapping fields at ×20 magnification were graded based on the scoring criteria for fibrosis, inflammation and overall pathology scores as outlined in Example 1 herein. The areas were selected away from large airways and major blood vessels. Scores from all ten fields were then averaged to give representative scores for the parameters assessed in the sectioned lung segment.

[4] = system: sheep model for pulmonary fibrosis, bleomycin-injured lung segments; experiment: Example 2: Masson's trichrome assay of connective tissue content
Excerpt: as §1
All sheep (n=10) in the study were challenged with 2 single doses of bleomycin (3 units) per lung segment, a fortnight apart and the animals were kept for a little over 5 weeks after the final bleomycin dose. Bleomycin is a well-known agent for inducing fibrosis in the lungs. […]
The degree of fibrosis was quantified by assessing the changes in overall connective tissue content within the parenchymal tissue using methods known to the skilled person. […] The images were then analysed using Image-Pro® Plus (Version 6.3 for Windows, Media Cybernetics, Bethesda, Md., USA) using the ‘colour selector’ tool to measure the area of blue-stained tissues (collagen and other connective tissues) within each field of view. […] The fraction of blue stained tissue area was expressed as a percentage per total field area (percentage of blue stained tissue area per total field area). […]

[5] = system: sheep model for pulmonary fibrosis; experiment: Example 2: overall conclusion on efficacy in sheep model of pulmonary fibrosis
Excerpt: as §1, §2, §3
For control purposes the lung segment in the opposite lung was used as a bleomycin-positive, without drug, control, as indicated in FIG. 1. The bioactive molecules in vehicle, were delivered as 5 ml infusions through the biopsy port of the bronchoscope. […]

[6] = individual sheep data, 10 sheep
[7] = week 12 post-mortem, vs bleomycin alone, 4 weekly infusions of 7 mg, n=10 sheep
[8] = vs segments which received bleomycin infusion only, 4 weekly treatments of 7 mg, n=10 sheep

`O=C1CC(c2ccccc2)Oc2cc(O)cc(O)c21` (stereo not drawn) [pinocembrin, 5,7-Dihydroxy-2-Phenyl-2,3-Dihydro-4H-Chromen-4-One] was tested, and the “lung function in lung segments injured by bleomycin (summary)” value ([1]; 4 weekly doses of 7 mg, n=10 sheep) was “significantly improved”, the “sheep with improved function (Cseg) in bleomycin-damaged, pinocembrin-treated lung segments” value ([1]; individual sheep data, 4 weekly infusions of 7 mg, 10 sheep) was “eight out of ten” and the “percentage change in compliance from baseline” value ([1]; week 0 to week 11, after four weekly administrations, n=10 sheep) was “significantly improved”. For the same compound, the “mean segmental compliance (Cseg) compared with untreated healthy control lung segments” value ([1]; week 11, 7 mg in 10% DMSO infused into bleomycin-injured caudal segment, 4 weekly doses, n=10 sheep) was “not significantly different from the untreated healthy control lung segments”, the “sheep with lower CD8+ and CD4+ T cells after pinocembrin treatment” value [2, 6] was “All sheep” and the “numbers of CD4+ T cells in the lung parenchyma” value [2, 7] was “significantly lower; also recorded: significant reduction”. For the same compound, the “numbers of CD8+ T cells in the lung parenchyma” value [2, 7] was “significantly lower; also recorded: significant reduction”, the “sheep having improved fibrosis scores” value [3, 6] was “eight out of ten” and the “sheep having improved inflammation scores” value [3, 6] was “nine out of ten”. The “sheep having improved overall pathology scores” value [3, 6] was “Nine out of ten”, the “fibrosis score (histopathology), difference” value ([3]; lower than segments which received bleomycin infusion only, 4 weekly treatments of 7 mg, n=10 sheep) was “not statistically significant” and the “pathology scores (all three parameters) compared with untreated control lung segments” value ([3]; pinocembrin-treated bleomycin segments vs untreated control segments, n=10 sheep) was “significantly higher”. For the same compound, the “inflammation score (histopathology)” value [3, 8] was “significantly lower; also recorded: significantly improved”, the “overall pathology score (histopathology)” value [3, 8] was “significantly lower; also recorded: significantly improved” and the “sheep with decreased percentage blue values” ([4]; individual sheep data, vs bleomycin injury without pinocembrin, 10 sheep) was “nine out of ten”. For the same compound, the “percentage blue staining, Masson's Trichrome stained connective tissue” value ([4]; vs bleomycin-infused lung without pinocembrin, 4 weekly treatments of 7 mg, n=10 sheep) was “significantly reduces; also recorded: significant decrease; also recorded: significantly lower”, the “anti-inflammatory properties (overall)” value ([5]; from BAL cell and parenchymal T cell data) was “strong anti-inflammatory properties” and the “anti-fibrotic effect (overall)” value ([5]; from fibrosis scores, Masson's trichrome and hydroxy proline assays) was “modest anti-fibrotic effect”.
